The source of these data is article PMC8236048, “Pharmaceutical design of a delivery system for the bacteriocin lacticin 3147” (Drug Delivery and Translational Research, 2021).

The target in one data set is T1, α-chymotrypsin (Bos taurus, UniProt P00766).
T1 construct: purchased Sigma-Aldrich Ireland Ltd
The experiment in a line: Enzyme degradation of lacticin 3147 by α-chymotrypsin (activity, MALDI-TOF). The data set is classed as in vitro ADME. Particulars: 25 mg/ml α-chymotrypsin, 3 h, 37 °C; then growth curve at 400 nM peptides. The procedure:
(§1) Lacticin 3147 production was confirmed by matrix-assisted laser desorption ionization-time of flight (MALDI-TOF) mass spectrometry using sinapinic acid as the matrix. About 0.7 μl of the matrix solution (sinapinic acid, 4 mg/ml in 50% acetone/50% methanol) was added to the target plate and left to evaporate (30 s) at ambient conditions. Individual peptides (Ltnα or Ltnβ) were resuspended in 70% IPA and mixed at a 1:1 volume ratio with a 10-mg/ml stock solution of sinapinic acid in 60% ACN with 0.1% TFA. About 0.3 μl of this peptide-matrix solution was then added to the matrix layer previously applied to the plate and evaporated at ambient conditions. The plate was inserted into a MALDI-TOF Ultraflex mass spectrometer (Bruker) and analysed using reflectron positive 700–3500 Da mode. 100 shots were fired at 88% intensity. This method was also used for the analyses of samples from the enzyme degradation studies.
(§2) Trypsin and α-chymotrypsin stock solutions (50 mg/ml) were resuspended in water. Pepsin (50 mg/ml) was resuspended in 0.02 M HCL. About 1 mg/ml individual solutions of Ltnα and Ltnβ in 70% IPA were filtered and diluted (1 in 20) in sterile PBS to give a final peptide concentration of 50 µg/ml. After this, 5.3 µl Ltnα and 4.6 µl Ltnβ were added to the same well of a 96-well plate. The pH of the lacticin 3147-pepsin solution was 2.29. Control wells consisting of Ltnα and Ltnβ together, Ltnα alone, and Ltnβ alone with no enzyme were included. The 96-well plate was incubated for 3 h at 37 °C to allow the enzyme to act. After incubation, the wells were filled to 50 μl with PBS and 150 μl of diluted bacterial cell culture (L. monocytogenes at an OD of 0.1) was added to each well. The final peptide concentration of 400 nM (1.31 µg/ml Ltnα, 1.14 µg/ml Ltnβ) was obtained when the wells were filled to 200 µl. […] The effect of the proteases pepsin, α-chymotrypsin, and trypsin on the lacticin 3147 peptides was determined by MALDI-TOF mass spectrometry. […] After 3 h, 1 µl was removed from each sample and it was analysed by MALDI-TOF mass spectrometry. […]

Data set [1] deals with T2, pepsin (Sus scrofa, UniProt P00791).
T2 construct: purchased Sigma-Aldrich Ireland Ltd
The settings on record: cited from earlier work. An excerpt: (§3) Gardiner et al., however, reported that α-chymotrypsin alone degrades lacticin 3147 [21]. Lacticin 3147 is heat stable, pH stable, and active at a neutral pH [9]. However, quantitative data on the amount of lacticin 3147 dissolved, i.e. its solution concentration, is rarely reported. In fact, only a handful of quantitative solubility studies on bacteriocins can be found in the literature [[ ...

In the next data set the test system is trypsin. Particulars: cited from earlier work.
Description: as §3

The conditions of data set [2]: cited from earlier work.
Description: as §3

Data set [3] concerns the target T2, pepsin. Put plainly: Enzyme degradation of lacticin 3147 by pepsin (activity, MALDI-TOF, RP-HPLC). The data set is classed as in vitro ADME. The settings on record: 25 mg/ml pepsin, 3 h, 37 °C, pH 2.29; then growth curve at 400 nM peptides. As to the method:
as §1
All lacticin 3147 samples were filtered through a 0.2-µm PES filter before analysis by RP-HPLC using an Agilent 1200 Infinity Series HPLC (Agilent Technologies, USA). The HPLC separations were carried out on an Aeris 3.6 µm Peptide 100 Å 250 × 4.6 mm, liquid chromatography column with a flow rate of 0.8 ml/min, and with 0.1% trifluoroacetic acid (TFA) in water as aqueous phase-A and 0.1% TFA in acetonitrile (ACN) as organic phase-B. The total run time was 51 min. The mobile phase started with 30:70 A:B for 3 min and change linearly to 35:65 A:B over 30 min. The organic phase was then adjusted to 100% within 1 min and continued to flow for 5 min. After this, the mobile phase returned to the initial ratio to stabilize the chromatographic system. The detector was set at 214 nm. The peak area (mAU) was plotted against the concentration (1.56–500 µg/ml) to make a calibration curve. The coefficients of determination (R^2 values) were 0.9963 and 0.9983 for Ltnα and Ltnβ respectively. This method was subsequently used for quantitative analysis of Ltnα and Ltnβ.
as §2, with “µl. Blanks were set up in triplicate with media only and PBS only. The three control wells were also set up with bacterial culture and each enzyme only.” for “µl.”
Pepsin’s effect on lacticin 3147 was also investigated by RP-HPLC. […] After incubation, aliquots were taken, filtered, and analysed by RP-HPLC to determine if pepsin degrades Ltnα or Ltnβ to any extent.

T2 sequence (P00791 60-385): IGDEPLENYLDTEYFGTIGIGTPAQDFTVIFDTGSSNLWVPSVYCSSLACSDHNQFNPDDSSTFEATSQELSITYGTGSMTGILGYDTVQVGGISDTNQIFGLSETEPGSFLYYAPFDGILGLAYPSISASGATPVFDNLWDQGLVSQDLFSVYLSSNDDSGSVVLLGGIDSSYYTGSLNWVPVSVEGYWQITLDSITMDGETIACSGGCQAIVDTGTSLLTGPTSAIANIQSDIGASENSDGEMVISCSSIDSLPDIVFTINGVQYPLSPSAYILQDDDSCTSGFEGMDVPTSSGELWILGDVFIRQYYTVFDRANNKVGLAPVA

As to lacticin 3147, at α-chymotrypsin, the “activity against L. monocytogenes ATCC 1916 after incubation with α-chymotrypsin” value is given as “growth curve similar to that of the bacterial control”. At pepsin [1], the “effect of pepsin on activity” value is on record as “unaffected”. Besides, the effect of trypsin result in the data set on trypsin is “degraded and inactivated”. Besides, in data set [2], the heat stability entry is “heat stable” and the pH stability result is “pH stable”. The “activity against L. monocytogenes ATCC 1916 after incubation with pepsin” value at pepsin [3] was “remains active”.
